Reference: ChEMBL document CHEMBL1158605, “Synthesis of novel beta-lactam fused spiroisoxazolidine chromanones and tetralones as potent antimicrobial agent for human and plant pathogens” (2010)
Converted amounts (≈) assume the structure as drawn.

Assays:
Proteus vulgaris = assay: Antibacterial activity against Proteus vulgaris; format: functional
Proteus mirabilis = assay: Antibacterial activity against Proteus mirabilis; format: functional
Staphylococcus aureus = assay: Antibacterial activity against Staphylococcus aureus; format: functional
Salmonella enterica = assay: Antibacterial activity against Salmonella typhi; format: functional, Salmonella enterica subsp. enterica serovar Typhi
Fusarium oxysporum = assay: Antifungal activity against Fusarium oxysporum; format: functional
Macrophomina phaseolina = assay: Antifungal activity against Macrophomina phaseolina; format: functional

SMILES	MIC (Proteus vulgaris) [µg/mL]	MIC (Proteus mirabilis) [µg/mL]	MIC (Staphylococcus aureus) [µg/mL]	MIC (Salmonella enterica) [µg/mL]	MIC (Fusarium oxysporum) [µg/mL]	MIC (Macrophomina phaseolina) [µg/mL]
COc1ccc(N2C(=O)[C@H]3[C@@H]2[C@H]2[C@H](c4ccccc4)[C@]4(COc5ccccc5C4=O)ON2[C@@H]3C[Se]c2ccccc2)cc1	30 (≈ 47.1 µM)	55 (≈ 86.3 µM)	45 (≈ 70.6 µM)	20 (≈ 31.4 µM)	125 (≈ 196 µM)	50 (≈ 78.4 µM)
COc1ccc(N2C(=O)[C@H]3[C@@H]2[C@H]2[C@H](c4ccc(C)cc4)[C@]4(COc5ccccc5C4=O)ON2[C@@H]3C[Se]c2ccccc2)cc1	40 (≈ 61.4 µM)	65 (≈ 99.8 µM)	45 (≈ 69.1 µM)	35 (≈ 53.7 µM)	150 (≈ 230 µM)	75 (≈ 115 µM)
COc1ccc([C@H]2[C@@H]3[C@H]4[C@H](C(=O)N4c4ccc(OC)cc4)[C@@H](C[Se]c4ccccc4)N3O[C@@]23COc2ccccc2C3=O)cc1	15 (≈ 22.5 µM)	25 (≈ 37.4 µM)	40 (≈ 59.9 µM)	45 (≈ 67.4 µM)	125 (≈ 187 µM)	75 (≈ 112 µM)
COc1ccc(N2C(=O)[C@H]3[C@@H]2[C@H]2[C@H](c4ccc(Cl)cc4)[C@]4(COc5ccccc5C4=O)ON2[C@@H]3C[Se]c2ccccc2)cc1	10 (≈ 14.9 µM)	20 (≈ 29.8 µM)	20 (≈ 29.8 µM)	25 (≈ 37.2 µM)	75 (≈ 112 µM)	50 (≈ 74.4 µM)
COc1ccc(N2C(=O)[C@H]3[C@@H]2[C@H]2[C@H](c4ccc(Br)cc4)[C@]4(COc5ccccc5C4=O)ON2[C@@H]3C[Se]c2ccccc2)cc1	25 (≈ 34.9 µM)	30 (≈ 41.9 µM)	30 (≈ 41.9 µM)	45 (≈ 62.8 µM)	150 (≈ 209 µM)	75 (≈ 105 µM)
COc1ccc(N2C(=O)[C@H]3[C@@H]2[C@H]2[C@H](c4ccccc4)[C@]4(CCc5ccccc5C4=O)ON2[C@@H]3C[Se]c2ccccc2)cc1	40 (≈ 62.9 µM)	55 (≈ 86.5 µM)	25 (≈ 39.3 µM)	45 (≈ 70.8 µM)	125 (≈ 197 µM)	75 (≈ 118 µM)
COc1ccc(N2C(=O)[C@H]3[C@@H]2[C@H]2[C@H](c4ccc(C)cc4)[C@]4(CCc5ccccc5C4=O)ON2[C@@H]3C[Se]c2ccccc2)cc1	45 (≈ 69.3 µM)	50 (≈ 77 µM)	40 (≈ 61.6 µM)	35 (≈ 53.9 µM)	75 (≈ 115 µM)	25 (≈ 38.5 µM)
COc1ccc([C@H]2[C@@H]3[C@H]4[C@H](C(=O)N4c4ccc(OC)cc4)[C@@H](C[Se]c4ccccc4)N3O[C@@]23CCc2ccccc2C3=O)cc1	35 (≈ 52.6 µM)	50 (≈ 75.1 µM)	45 (≈ 67.6 µM)	40 (≈ 60.1 µM)	125 (≈ 188 µM)	50 (≈ 75.1 µM)
COc1ccc(N2C(=O)[C@H]3[C@@H]2[C@H]2[C@H](c4ccc(Cl)cc4)[C@]4(CCc5ccccc5C4=O)ON2[C@@H]3C[Se]c2ccccc2)cc1	45 (≈ 67.2 µM)	40 (≈ 59.7 µM)	35 (≈ 52.2 µM)	30 (≈ 44.8 µM)	50 (≈ 74.6 µM)	25 (≈ 37.3 µM)
COc1ccc(N2C(=O)[C@H]3[C@@H]2[C@H]2[C@H](c4ccc(Br)cc4)[C@]4(CCc5ccccc5C4=O)ON2[C@@H]3C[Se]c2ccccc2)cc1	35 (≈ 49 µM)	50 (≈ 70 µM)	45 (≈ 63 µM)	35 (≈ 49 µM)	150 (≈ 210 µM)	75 (≈ 105 µM)
COC(=O)Nc1nc2ccccc2[nH]1 [CARBENDAZIM]					18 (≈ 94.1 µM)	15 (≈ 78.5 µM)
CN(C)[C@@H]1C(O)=C(C(N)=O)C(=O)[C@@]2(O)C(O)=C3C(=O)c4c(O)cccc4[C@@](C)(O)[C@H]3C[C@@H]12 [TETRACYCLINE]	15 (≈ 33.8 µM)	20 (≈ 45 µM)	10 (≈ 22.5 µM)	15 (≈ 33.8 µM)		
